Results taken from US20230059124A1, “Novel TAS2R38 Bitter Taste Receptor Agonist” (priority 2021, published 2023).

How the values were obtained:
TAS2R38 gene [1] = experiment: qPCR TAS2R38 gene expression in hTBEC 2 culture; type: cell-based, human; conditions: 1 μM; for Tas2R38 3prime 2^-ddct / Tas2R38 5prime 2^-ddct / Tas2R38C DS 2^-ddct: control = 1.000
Source text: (§1) Currently, very little is known about compounds that directly agonize and regulate TAS2R38 expression. Because of this, research related to the prenylflavonoid xanthohumol's effects on gene expression was compared with other TAS2R38 targeting compounds, namely sinigrin, a glucosinolate connected to the family of glucosides found in the Brassicaceae vegetable family and found in foods such as brussels sprouts and broccoli. […] selectively triggers the taster variant of the TAS2R38 receptor (Meyerhof, W. et al. The Molecular Receptive Ranges of Human TAS2R Bitter Taste Receptors. Chem Sense (2010) 35: 157-70.) […] was used as a comparator at a concentration of 1 the same concentration as xanthohumol (1 μM). Two hTBEC cultures were selected for this initial study. hTBEC 1 is derived from one of the most bitter-responsive cultures, which has a moderate/moderately low basal gene expression level of TAS2R38. hTBEC 2 is derived from a culture that responds to bitter stimuli, but has a high response in particular to TAS2R38 expression compared with other hTBEC repositories. RNA was harvested from cultures treated cultures and control cultures at 1 μM lead compound at 24 and 48 hours post treatment. Following is a table that explains the experimental paradigm in full: [table] In an effort to establishing a comprehensive understanding of xanthohumol's effects on gene expression, 3 unique primer pairs to accurately capture the TAS2R38 gene were developed as cultures. […] The published NCBI genetic sequence for the region of chromosome 7q that encodes TAS2R38 and overlay map the SNP variant markers to ensure the primers cover strategic regions of the TAS2R38 gene. For probing TAS2R38, 3 individual primer pairs were used for a comprehensive view of how the compound may be “hitting” the gene.

TAS2R38 gene [2] = experiment: qPCR TAS2R38 gene expression in hTBEC 1 culture; type: cell-based, human; conditions: for Tas2R38 3prime 2^-ddct / Tas2R38 5prime 2^-ddct / Tas2R38C DS 2^-ddct / Tas2R38 3prime ddCT / Tas2R38 5prime ddCT / Tas2R38C DS ddCT: 1 μM; for Tas2R38 3prime 2^-ddct / Tas2R38 5prime 2^-ddct / Tas2R38C DS 2^-ddct: control = 1.000
Source text: as §1

TAS2R38 gene [3] = experiment: DNA microarray gene expression, MatTek full thickness tissue (EFT-200); type: cell-based, Homo sapiens; conditions: 0.05 ml solubilized xanthohumol liquid formulation 5 mg/ml, 48 hours; ratio >=1.3 = up-regulated
Source text: The testing model used in this study is the MatTek full thickness tissue (EFT-200). This skin model consists of normal human-derived epidermal keratinocytes that have been cultured to form a multilayered, highly differentiated model of the human epidermis and human fibroblasts that have been seeded into a collagen matrix to form the dermis. This model also introduces a well-defined basement membrane between the epidermal and dermal layers, which is essential to enable in vivo like interactions between the keratinocytes and the fibroblasts.
Upon arrival, the MatTek ET-200 tissue was stored at 4° C. until used (they can be stored for up to 72 hours however tissue viability may decrease with prolonged storage). Prior to use, the tissues to be used were removed from the agarose-shipping tray and placed into a 6-well plate containing 2.0 ml of assay medium (37±2° C.). All of the agarose must be removed from the outside of the tissue culture insert since any residual agarose may prevent the assay medium from reaching the tissue. […]
At the end of the incubation any residual test material was removed from the tissues by rinsing them twice with at least 100 μl of PBS. […] These broader ranges are a more conservative judging criterion and account for possible sources of variation in fluorescence intensity that are not associated with the treatment. […]

[4] = hTBEC 2, 24 hour, vs control 24
[5] = hTBEC 2, 48 hour, vs control 48 hour
[6] = hTBEC 1, 24 hour, vs control 24
[7] = hTBEC 1, 48 hour, vs control 48 hour

SMILES	Tas2R38 3prime 2^-ddct (TAS2R38 gene [1]; hTBEC 2, 24 hour)	Tas2R38 5prime 2^-ddct (TAS2R38 gene [1]; hTBEC 2, 24 hour)	Tas2R38C DS 2^-ddct (TAS2R38 gene [1]; hTBEC 2, 24 hour)	Tas2R38 3prime ddCT (TAS2R38 gene [1]; [4])	Tas2R38 5prime ddCT (TAS2R38 gene [1]; [4])	Tas2R38C DS ddCT (TAS2R38 gene [1]; [4])	Tas2R38 3prime 2^-ddct (TAS2R38 gene [1]; hTBEC 2, 48 hour)	Tas2R38 5prime 2^-ddct (TAS2R38 gene [1]; hTBEC 2, 48 hour)	Tas2R38C DS 2^-ddct (TAS2R38 gene [1]; hTBEC 2, 48 hour)	Tas2R38 3prime ddCT (TAS2R38 gene [1]; [5])	Tas2R38 5prime ddCT (TAS2R38 gene [1]; [5])	Tas2R38C DS ddCT (TAS2R38 gene [1]; [5])	Tas2R38 3prime 2^-ddct (TAS2R38 gene [2]; hTBEC 1, 24 hour)	Tas2R38 5prime 2^-ddct (TAS2R38 gene [2]; hTBEC 1, 24 hour)	Tas2R38C DS 2^-ddct (TAS2R38 gene [2]; hTBEC 1, 24 hour)	Tas2R38 3prime ddCT (TAS2R38 gene [2]; [6])	Tas2R38 5prime ddCT (TAS2R38 gene [2]; [6])	Tas2R38C DS ddCT (TAS2R38 gene [2]; [6])	Tas2R38 3prime 2^-ddct (TAS2R38 gene [2]; hTBEC 1, 48 hour)	Tas2R38 5prime 2^-ddct (TAS2R38 gene [2]; hTBEC 1, 48 hour)	also measured
C=CCC(=NOS(=O)(=O)O)S[C@@H]1O[C@H](CO)[C@@H](O)[C@H](O)[C@H]1O (stereo in doubt) [sinigrin, reference compound]	0.600	0.553	0.657	0.736	0.616	0.605	1.436	1.317	0.625	−0.524	−0.397	0.677	0.988	1.142	1.023	0.017	−0.192	−0.033	0.983	1.027	Tas2R38C DS 2^-ddct (TAS2R38 gene [2]; hTBEC 1, 48 hour): 1.716; Tas2R38 3prime ddCT (TAS2R38 gene [2]; [7]): 0.025; Tas2R38 5prime ddCT (TAS2R38 gene [2]; [7]): −0.038; Tas2R38C DS ddCT (TAS2R38 gene [2]; [7]): −0.779
COc1cc(O)c(CC=C(C)C)c(O)c1C(=O)/C=C/c1ccc(O)cc1 [xanthohumol]	2.013	2.609	1.779	−1.009	−1.383	−0.831	0.995	0.624	4.175	0.007	0.679	−2.062	2.024	3.983	2.785	−1.017	−1.994	−1.478	0.664	1.368	Ratio of Medians, TAS2R38 (NM_176817) up-regulation (TAS2R38 gene [3]): 21; up regulation of the TAS2R38 gene, higher than baseline or the Sinigrin control (TAS2R38 gene [2]; FIG. 1, 1 μM, within 24 hours, culture not stated): approximately 4 ×; Tas2R38C DS 2^-ddct (TAS2R38 gene [2]; hTBEC 1, 48 hour): 4.109; Tas2R38 3prime ddCT (TAS2R38 gene [2]; [7]): 0.591; Tas2R38 5prime ddCT (TAS2R38 gene [2]; [7]): −0.452; Tas2R38C DS ddCT (TAS2R38 gene [2]; [7]): −2.039
